{
  "source": "patent US20240173389A1",
  "about": "“Compositions and Methods For Reducing Immune Intolerance” (LAPIX THERAPEUTICS, INC., priority 2021, published 2024)",
  "key": {"B57BL6 Mice [1]": {"test_system": "B57BL6 Mice", "assay": "Anti-FVIII titer analysis in mice given FVIII co-mixed with compound SC QW 4 weeks, then FVIII re-challenge (Example 1)", "assay_type": "in vivo", "procedure": "OPLT was dissolved in sterile PBS, and pH was adjusted to approximately 7.5. OPLS, a comparator compound, was dissolved in sterile PBS, and pH was adjusted to approximately 7.5. FVIII in PBS was used as a control. For treatment, FVIII was co-mixed with OPLT, OPLS or diluted in PBS before administration, as per group assignment for each animal. For re-challenge, FVIII was administered alone SC to all animals regardless of group assignment. […] For a head-to-head comparison, 5 mg/injection was selected for OPLT. FVIII was dosed at 1 μg/injection.\nThe study was conducted in two parts: a treatment phase and a re-challenge phase. The objective of the treatment phase was to test the ability of OPLT to reduce the immunogenicity of FVIII as an antigen compared to animals administered FVIII or FVIII+OPLS. Animals were injected with FVIII, FVIII+OPLT, or FVIII+OPLS SC QW for 4 weeks. Blood samples were collected for anti-FVIII titer analysis after a one-week washout period from the last dose. The objective of the re-challenge phase of the study was to evaluate the duration of tolerance. Animals that have been successfully tolerized toward FVIII will not mount a robust immune response towards FVIII upon subsequent exposure to FVIII. After the washout period, animals were injected with (1 μg) FVIII SC QW for 2 weeks. Blood samples were collected one week after each FVIII injection for anti-FVIII titer analysis."}, "B57BL6 Mice [2]": {"test_system": "B57BL6 Mice", "assay": "Anti-GAA titer analysis in mice given GAA with OPLT or liposomal OBLT, then GAA re-challenge (Example 2)", "assay_type": "in vivo", "procedure": "OPLT and OBLT were dissolved in sterile PBS, and pH was adjusted to approximately 7.5. Liposomal OBLT was prepared using DMPC. GAA in PBS was used as a control. For the tolerance induction (or treatment) period, GAA was co-mixed with OPLT or liposomal OBLT, or diluted in PBS before administration as per group assignment for each animal. For the re-challenge protocol, GAA was administered IV alone to all animals regardless of group assignment. GAA was administered with 5 mg of OPLT SC QW. […] For all SC groups, GAA was dosed at 1 μg/injection (1 μg/week). For PO groups, GAA was dosed at 0.14 μg/dose QD (approximately 1 μg/week).\nThe objective of the treatment phase was to test the ability of OPLT or liposomal OBLT to reduce the immunogenicity of GAA, as an antigen, compared to animals administered GAA alone. Animals were injected with GAA, GAA+OPLT, or GAA+liposomal OBTL SC QW for 4 weeks. Blood samples were collected for anti-GAA analysis after a one-week washout period from the last dose. For oral tolerance, animals were administered GAA or GAA+liposomal OBLT PO, QD for 4 weeks. GAA was also administered SC QW to both groups during the treatment period. Blood samples were collected for anti-GAA titer analysis after a one-week washout period from the last dose.\nThe objective of the re-challenge phase of the study was to evaluate the duration of tolerance. […] After the washout period, animals were injected with (1 μg) GAA SC QW for 2 weeks. Blood samples were collected one week after each injection for anti-GAA titer analysis."}, "B57BL6 Mice [3]": {"test_system": "B57BL6 Mice", "assay": "Anti-AAV9 titer analysis in mice given AAV9 with OPLT or liposomal OBLT (Example 3)", "assay_type": "in vivo", "procedure": "OPLT and OBLT were dissolved in sterile PBS, and pH was adjusted to approximately 7.5. Liposomal OBLT was prepared using […]. AAV9 in PBS was used as a control. For treatment, AAV9 was co-mixed with OPLT or liposomal OBLT before administration, as per group assignment for each animal. AAV9 was administered with 5 mg of OPLT SC QW, 50 μg OBLT SC QW as liposomal OBLT or 7.2 μg OBLT PO QD as liposomal OBLT. For all SC groups, AAV9 was dosed at 10^6 particles/injection. For PO groups, AAV9 was dosed at 1.43×10^5 particles/injection.\nAnimals were injected with AAV9, AAV9+OPLT, or AAV9+liposomal OBLT SC QW for 4 weeks. Blood samples were collected for anti-AAV9 titer analysis after a one-week washout period from the last dose. For oral tolerance, animals were administered AAV9 or AAV9+liposomal OBLT PO, QD for 4 weeks. AAV9 was also administered SC QW to both groups during the treatment period. Blood samples were collected for anti-AAV9 titer analysis after a one-week washout period from the last dose."}, "Splenocytes": {"test_system": "Splenocytes", "assay": "Splenocyte culture with anti-CD3/anti-CD28 without antigen, Foxp3+/CD4+ by flow cytometry (Example 4)", "assay_type": "cell-based", "settings": "100 μM, three days, anti-CD3/anti-CD28, absence of any antigen", "procedure": "Splenocytes were cultured for three days in presence of anti-CD3/anti-CD28 in presence of 100 μM PS or 100 μM OPLT in absence of any antigen."}, "TLR4": {"test_system": "TLR4", "assay": "TNF-α production by splenocytes in response to TLR4 ligand LPS", "assay_type": "cell-based, C57BL/6 mice", "settings": "for TNF-α mean: 48 hours, OPLT 1.85 μg/ml, dexamethasone 100 μg/ml, rapamycin 625 μg/ml", "procedure": "(§1) OPLT was dissolved in sterile PBS at 100 μM, and pH was adjusted to approximately 7.5. Splenocytes from naïve C57BL/6 mice were stained with CFSE, prepared, cultured, and dosed. Cells were seeded at 2×10^5 cells/well.\n(§2) To evaluate the effects of OPLT on cytokine production by splenocytes in response to different TLR ligands, splenocytes were incubated with one of the following TLR ligands in triplicate: PGN, LPS, ODN CPG, dsRNA, or ssRNA, as per group assignment. Cells were then treated as follows: • Control: No treatment; • OPLT: Cells were dosed with 1.85 μg/ml; • Dexamethasone: Cells were dosed with 100 μg/ml; • Rapamycin: Cells were dosed with 625 μg/ml. Cells were incubated for 48 hours before collecting the supernatant for TNF-α analysis.\n(§3) The supernatant was collected for TNF-α analysis by ELISA."}, "TLR7": {"test_system": "TLR7", "assay": "TNF-α production by splenocytes in response to TLR7 ligand ssPolyU", "assay_type": "cell-based, C57BL/6 mice", "settings": "for TNF-α mean: 48 hours, OPLT 1.85 μg/ml, dexamethasone 100 μg/ml, rapamycin 625 μg/ml", "procedure": "as §1, §2, §3"}, "[4]": {"settings": "weeks 1 and 2 of re-challenge with FVIII alone SC QW"}},
  "data": [
    {"smiles": "N[C@@H](Cc1ccc(OP(=O)(O)O)cc1)C(=O)O", "note": "[OPLT, O-phospho-L-tyrosine]", "values": [
      {"measurement": "inducing sustained immunotolerization toward FVIII", "setting": "B57BL6 Mice [1]; OPLT versus OPLS, 5 mg/injection each", "value": "more effective than OPLS"},
      {"measurement": "anti-FVIII titers versus FVIII control group", "setting": "B57BL6 Mice [1]; end of treatment after one-week washout", "value": "statistically lower than the FVIII control group"},
      {"measurement": "animals that developed anti-FVIII antibodies", "setting": "B57BL6 Mice [1]; end of treatment after one-week washout, 5 mg/injection + FVIII SC QW 4 weeks, FVIII control 8/8", "value": "3/8"},
      {"measurement": "average anti-FVIII titer in re-challenge period", "setting": "B57BL6 Mice [1]; [4]", "value": "lower titer than animals in the OPLS+FVIII and the FVIII control group"},
      {"measurement": "immune response to FVIII re-challenge", "setting": "B57BL6 Mice [1]; [4]", "value": "did not develop a robust immune response"},
      {"measurement": "animals that developed anti-GAA titers", "setting": "B57BL6 Mice [2]; SC QW 4 weeks, 5 mg OPLT + GAA 1 μg, after one-week washout, controls 6/6", "value": "4/6"},
      {"measurement": "anti-GAA titers versus control groups", "setting": "B57BL6 Mice [2]; SC QW 4 weeks, OPLT 5 mg, liposomal OBLT 50 μM (1.3 μg OBLT/injection), after one-week washout", "value": "statistically lower than the controls and comparators"},
      {"measurement": "immune response to GAA re-challenge", "setting": "B57BL6 Mice [2]; SC treatment group, weeks 1 and 2 of re-challenge, statistically significant at week 2 only", "value": "did not develop a robust immune response"},
      {"measurement": "anti-AAV9 immune response/titers versus AAV9 alone control", "setting": "B57BL6 Mice [3]; SC QW 4 weeks", "value": "did not elicit an immune response"},
      {"measurement": "animals that developed measurable anti-AAV9 antibodies", "setting": "B57BL6 Mice [3]; SC QW 4 weeks with AAV9, after one-week washout, AAV9 SC control 8/8", "value": "0/8"},
      {"measurement": "increase in Foxp3+/CD4+ compared to control", "setting": "Splenocytes", "value": 118, "unit": "%"},
      {"measurement": "TNF-α mean", "setting": "TLR4; LPS 0 ng/ml", "value": 0, "unit": "pg/mL"},
      {"measurement": "TNF-α mean", "setting": "TLR4; LPS 1 ng/ml, CTL 143", "value": 116, "unit": "pg/mL"},
      {"measurement": "TNF-α mean", "setting": "TLR4; LPS 10 ng/ml, CTL 840", "value": 676, "unit": "pg/mL"},
      {"measurement": "TNF-α mean", "setting": "TLR4; LPS 100 ng/ml, CTL 1091", "value": 838, "unit": "pg/mL"},
      {"measurement": "effect on splenocytes' TNF-α response to the TLR4 ligand LPS (in words)", "setting": "TLR4; compared to control at all doses, 10 μM OPLT", "value": "did not abrogate splenocytes' response to LPS"},
      {"measurement": "TNF-α mean", "setting": "TLR7; Poly U 0 ng/ml", "value": 0, "unit": "pg/mL"},
      {"measurement": "TNF-α mean", "setting": "TLR7; Poly U 1 ng/ml, CTL 44", "value": 36, "unit": "pg/mL"},
      {"measurement": "TNF-α mean", "setting": "TLR7; Poly U 10 ng/ml, CTL 51", "value": 40, "unit": "pg/mL"},
      {"measurement": "TNF-α mean", "setting": "TLR7; Poly U 100 ng/ml, CTL 229", "value": 43, "unit": "pg/mL"},
      {"measurement": "effect on splenocytes' TNF-α response to the TLR7 ligand Poly U (in words)", "setting": "TLR7; high dose of Poly U, statistically significant", "value": "reduced splenocytes' response to a high dose of the TLR7 ligand Poly U"}
    ]}
  ]
}
